{
  "source": "patent US20100249064A1",
  "about": "“METHODS AND COMPOSITIONS FOR TREATING DISEASES AND CONDITIONS INVOLVING HIGHER MOLECULAR WEIGHT HYALURONAN” (University of Chicago, priority 2007, published 2010)",
  "key": {"C1INH": {"system": "C1INH", "assay": "C1INH expression in EC (immunoblot)", "assay_type": "cell-based, human", "settings": "100 nM HMW-HA", "method": "Determination of the role of HMW-HA/HABP2/C1INH interactions in regulating angiogenesis in vitro. Human pulmonary EC (Cambrex), grown in EBM-2 complete medium (Cambrex) at 37° C. in a humidified atmosphere of 5% CO2, 95% air, with passages 6-10 used for experimentation will be treated with or without 100 nM HMW-HA and/or 100 nM VEGF in the presence or absence of HABP2 and/or C1INH overexpression vectors (Origene), exogenous purified recombinant HABP2 polyanion binding domain and/or C1INH (Novus Biologicals) and/or siRNA (scramble, HABP2 or C1INH). For HABP2 protease activity determination, media from HABP2 overexpressing EC (see above) was immunoprecipitated with anti-HABP2 antibody-conjugated Sepharose beads (Sigma). The immunobeads were then extensively washed in 50 mM Borate, pH=8.5 and protease activity was measured using the QuantiCleave™ Protease Assay Kit (Pierce). Briefly, the immunobeads were incubated with succinylated casein for one hour followed by development with TNBSA (2,4,6-trinitrobenzene sulfonic acid) and read at 450 nm."}, "CD44": {"system": "CD44", "assay": "CD44 expression in mouse lung homogenates (immunoblot)", "assay_type": "in vivo", "method": "(§1) Animal Preparation and Treatment. Male C57BL/6J, B6129N2, CD44^−/− or caveolin-1^−/− mice (8-10 weeks, Jackson Laboratories, Bar Harbor, Me.) were anesthetized with intraperitoneal ketamine (150 mg/kg) and acetylpromazine (15 mg/kg) before exposure of the right internal jugular vein via neck incision. LPS (2.5 mg/kg) or water (control) were instilled intratracheally. Four hours later, mice receive high MW HA (1.5 mg/kg) or water control through the internal jugular vein. The animals were allowed to recover for 24 hours after LPS before bronchioalveolar lavage protein and cytokine concentration and/or lung immunohistochemistry/immunoblot analysis (Peng et al., 2004).\nImmunoblot analysis of CD44 and Caveolin-1 expression in control, LPS- and HA-treated mouse lung homogenates. CD44 is highly likely to be important in lung disease as CD44−/− mice develop lung fibrosis, inflammatory cell recruitment and accumulation of hyaluronan fragments at sites of lung injury (Teder et al., 2002). […] Caveolin-1 can be differentially regulated in various models of acute lung injury (ALI). Monocrotaline-induced rodent pulmonary hypertension results in a loss of lung EC caveolin-1 expression (Mathew et al., 2004). In contrast, there is no change in pulmonary caveolin-1 expression in lipopolyscaaharide (LPS)-induced sepsis with lung injury (Garrean et al., 2006). […]"}, "Human pulmonary EC": {"system": "Human pulmonary EC", "assay": "Atomic Force Microscopy of EC morphology and lipid rafts", "assay_type": "cell-based", "settings": "100 nM high MW HA", "method": "Atomic Force Microscopy. The protocols/procedures for AFM analysis of 50 to 100 nm pits (CEM, lipid rafts), EC height and force measurements were previously described in detail (Dvorak, 2003, Reich et al., 2001, Henderson et al., 2004, Milhiet et. al., 2004, Miklaszewska, 2004, Lucius, 2003). EC treated with various siRNAs or treated with MβCD with or without 100 nM high MW HA (0, 15, 30, 60 min.) were fixed in 4% glutaraldehyde and analyzed in tapping mode on a DI multimode AFM (Digital Instruments, Santa Barbara, Calif.) using a V-shaped oxide-sharpened silicon nitride cantilever with an optical scanning speed of ˜1.0 Hz to obtain a surface topology map which was quantitated and spatially defined using Metamorph™ software. For live cells, GFP and GFP-caveolin-1 expressing EC were treated with or without 100 nM high MW HA in a DI Bioscope cell chamber (Digital Instruments, Santa Barbara, Calif.) were exposed to tapping mode AFM with concurrent fluorescence scanning and images were obtained using a C5985 chilled CCD camera (Hamamatsu Photonics Systems, Bridgewater, N.J.)."}, "[1]": {"system": "LPS-induced murine lung vascular permeability", "assay": "LPS-induced murine lung vascular permeability, bronchioalveolar lavage (BAL) protein and cytokines", "assay_type": "in vivo, mouse", "settings": "for LPS-induced pulmonary hyper-permeability (BAL protein concentration): wildtype C57BL/6J mice, LPS 2.5 mg/kg intratracheally, HMW-HA 1.5 mg/kg or HGF 50 μg/kg intravenously 4 hours after LPS, BAL at 24 hours", "method": "Animal Preparation and Treatment—Male C57BL/6J and CD44 knockout mice (8-10 weeks, Jackson Laboratories, Bar Harbor, Me.) were anesthetized with intraperitoneal ketamine (150 mg/kg) and acetylpromazine (15 mg/kg) according to approved protocols. LPS (2.5 mg/kg) or saline (control) were instilled intratracheally and four hours later, HGF (50 μg/kg) or saline control delivered intravenously through the internal jugular vein. The animals were allowed to recover for 24 h followed by bronchioalveolar lavage protein analysis and/or lung immunohistochemistry.\nDetermination of Bronchioalveolar Lavage Protein Concentration—Bronchioalveolar lavage (BAL) was performed by an intratracheal injection of 1 cc of Hank's balanced salt solution followed by gentle aspiration. The recovered fluid was processed for protein concentration (BCA Protein Assay Kit; Pierce Chemical Co., Rockford, Ill.) as described (Su et al., 2004).\nAnimals. Male C57BL/6J mice, CD44 knockout mice, Caveolin-1 knockout mice (8-10 weeks, Jackson Laboratories, Bar Harbor, Me.) were anesthetized with intraperitoneal ketamine (150 mg/kg) and acetylpromazine (15 mg/kg) according to approved protocols. LPS (2.5 mg/kg) or saline (control) were instilled intratracheally and four hours later, HMW-HA (1.5 mg/kg) or saline control delivered intravenously through the internal jugular vein. The animals were allowed to recover for 24 hours followed by bronchioalveolar lavage protein analysis and/or lung immunohistochemistry.\nDetermination of protein concentration. Total protein concentration. TGF-alpha concentration. TGF-beta1 concentration. Bronchioalveolar lavage (BAL) was performed by an intratracheal injection of 1 cc of Hank's balanced salt solution followed by gentle aspiration. The recovered fluid was processed for protein concentration (BCA Protein Assay Kit; Pierce Chemical Co., Rockford, Ill.) or used to determine TNF-α and TGF-β1 concentrations using quantitative sandwich enzyme immunoassays (R & D Systems, Minneapolis, Minn.).\nas §1\nDetermination of Bronchoavleolar Lavage Protein and Cytokine Concentration. Bronchioalveolar lavage (BAL) was performed by an intratracheal injection of 1 cc of Hank's balanced salt solution followed by gentle aspiration. The recovered fluid was processed for protein concentration (BCA Protein Assay Kit; Pierce Chemical Co., Rockford, Ill.) (Peng et. al., 2004). Cytokines (IL-6, TNFalpha) were measured using a Quantikine sandwich ELISA kit (R & D Systems)."}, "[2]": {"settings": "wild type mice, LPS 2.5 mg/kg, HMW-HA 1.5 mg/kg i.v. after 4 hours"}},
  "note": "Entries after “also recorded” stand apart in the source; their conditions may differ.",
  "data": [
    {"substance": "hyaluronan [HMW-HA]", "values": [
      {"measurement": "C1INH expression in EC", "setting": "C1INH", "value": "increased the expression of the endogenous inhibitor of HABP2, C1INH"},
      {"measurement": "LPS-induced CD44 upregulation in mouse lungs", "setting": "CD44; C57BL/6J mice, LPS challenged followed by HMW-HA", "value": "inhibited LPS-induced CD44 upregulation"},
      {"measurement": "CD44 expression in mouse lungs", "setting": "CD44; HMW-HA alone", "value": "no effect on CD44 expression"},
      {"measurement": "EC morphological changes (AFM)", "setting": "Human pulmonary EC", "value": "caused dramatic morphological changes including increased thickening of EC junctions"},
      {"measurement": "total number of lipid raft-like structures (AFM)", "setting": "Human pulmonary EC", "value": "did not change"},
      {"measurement": "protective effect on LPS-induced pulmonary hyper-permeability (BAL) in knockout mice", "setting": "[1]; CD44 knockout (and, where stated, Caveolin-1 knockout) mice, same regimen", "value": "markedly attenuated in the CD44 knockout mouse; also recorded: did not protect from LPS-induced ALI in CD44 and Caveolin-1 knockout mice; also recorded: protection was blocked in the CD44 knockout mouse; also recorded: but not the CD44 knockout"},
      {"measurement": "TGF-alpha concentration in BAL fluids", "setting": "[1]; [2]", "value": "reduced the enhancing effect of LPS"},
      {"measurement": "TGF-beta1 concentration in BAL fluids", "setting": "[1]; [2]", "value": "reduced the enhancing effect of LPS"},
      {"measurement": "LPS-induced pulmonary hyper-permeability (BAL protein concentration)", "setting": "[1]", "value": "pulmonary hyper-permeability was attenuated; also recorded: significant difference (p<0.05) between LPS and HMW-HA+LPS treatment in the wildtype"},
      {"measurement": "LPS-induced pulmonary hyper-permeability (BAL protein concentration)", "setting": "[1]; listed as HWM-HA", "value": "protected from LPS-induced vascular leakiness in vivo"},
      {"measurement": "LPS-induced pulmonary hyper-permeability (BAL protein concentration)", "setting": "[1]; listed as High MW hyaluronan", "value": "reduced the enhancing effect of LPS on BAL protein concentration"},
      {"measurement": "LPS-induced pulmonary hyper-permeability (BAL protein concentration)", "setting": "[1]; listed as high MW HA", "value": "attenuated the vascular hyper-permeability"}
    ]}
  ]
}
